Measurements: US20100247433A1, “Use of non-canonical amino acids as metabolic markers for rapidly-dividing cells” (California Institute of Technology, priority 2005, published 2010)
“Also recorded” adds a separate entry of the source. Read-outs that look alike come from different tables or passages of the source.

Assays:
[1] = system: Dissociated hippocampal cultured neurons; assay: Toxicity of AHA by gross morphology of GFP-expressing neurons; format: cell-based, rat; conditions: 12 DIV neurons, 2 hrs, equimolar AHA or methionine control
Procedure: Dissociated hippocampal neuron cultures were prepared from newborn rat pups (PO) as outlined in (Banker and Goslin, 1990), Neurons were plated at a density of 15,000-45,000 cells/cm^2 onto poly-D-lysine coated cell culture dishes or onto poly-D-lysine and growth factor reduced matrigel (BD Biosciences) coated polycarbonate nets with a pore size of 3 μm (Transwell, Corning) for the preparation of isolated dendrites. The cultures were maintained and allowed to mature in growth medium (Neurobasal-A supplemented with B27 and GlutaMAX-1) for 14 to 21 days before use. […] To supplement glial neurotrophic factors, 25% conditioned growth media from glial and cortical cultures were added to the growth media. Isolated dendrites were obtained from Transwell cultures by removing the cell body layer with a sterile cell lifter after change to HBS. For immunolabeling after AHA-incorporation and cycloaddition with BiotinCyclooctyne, neurons are fixed at room temperature with 4% paraformaldehyde for 20 minutes. […] Images are recorded through standard emission filters at contrast settings for which the crossover between the two channels is negligible. […]

HEK293 cells [2] = assay: Ubiquitin signal on Western blot of whole lysates (protein degradation/misfolding); format: cell-based; conditions: HEK293 cells treated two hours, compared to buffer or methionine controls
Procedure: (§1) To show the specificity of this technique for the detection of newly synthesized proteins, HEK293 cells were incubated for 2 hrs with AHA in the presence or absence of a protein synthesis inhibitor (Anisomycin or Cycloheximide). After incubation, cells were lysed and subjected to [3+2]cycloaddition with the biotin-bearing alkyne-linker Biotin-PEO-Propargylamide, followed by Western blot analysis with an anti-Biotin-antibody. […] The potential for increased protein degradation was measured by examining the ubiquitin signal strength on a Western blot from whole lysates of HEK293 cells, which were treated with AHA, methionine or incubation buffer for two hours.

acute hippocampal slices = assay: AHA incorporation in acute hippocampal slices, Biotin-PEO tagging, Neutravidin, Western blot; format: cell-based, rat; conditions: 400 μm slices, varying concentrations of AHA, 1.5 hours
Procedure: These slices were recovered in artificial cerebrospinal fluid (ACSF) for at least 1 hour on organotypic membranes. Upon recovery, the slices were incubated with either a mixture of ^35S Met and ^35S Cys, or varying concentrations of AHA for 1.5 hours. FIG. 3C is a Western blot analysis for AHA-incorporated proteins from acute hippocampal slices. After AHA incorporation and slice homogenization, the homogenates were subjected to [3+2]-cycloaddition with a Biotin-PEO tag, and proteins incorporating AHA (and thus subsequently labeled by the Biotin-PEO labeling moiety) were concentrated using Neutravidin-conjugated beads (which binds the Biotin-PEO labeling moiety).

[3] = system: hippocampal dysembryoplastic neuroepithelial tumor (DNT) tissue; assay: AHA labelling of newly synthesized proteins in freshly dissected DNT tumor versus control tissue, anti-biotin Western blot; format: cell-based, human; conditions: 4 mM AHA, 1 hour, 37° C., equal total protein; control lateral temporal cortex of the same patient
Procedure: FIG. 5: Detection of newly synthesized proteins in cells of acutely dissected human brain tissue. Tumor and control cells were trypsinized and triturated before incubation with 4 mM AHA for 1 hour at 37° C. After cell lysis and Cu(I)-catalyzed tagging with a biotin-FLAG-alkyne tag, samples were subjected to Neutravidin-purification to separate newly synthesized proteins from pre-existing proteins, and analyzed on a Western blot using an anti-biotin antibody. Same total protein amounts were used for both tumor and control tissue. Input: sample before affinity purification; Supernatant: unbound material after Neutravidin-purification; NA: Neutravidin.
Having obtained the proper conditions for labeling dissected tissues, Applicants repeated the experiments in freshly dissected human DNT tumor tissues and control tissues. […] As a control, non-diseased tissue (lateral temporal cortex) from the same patient was analyzed along with the DNT tissue.
Freshly dissected tumor and control tissue were obtained in operating room. To ensure optimal uptake of AHA, both tissues were trypsinized and triturated into single cells before treatment with AHA and deuterated 1-lysine. Incubation with AHA was done at 37° C. under constant agitation. The tissues were subsequently lysed in SDS and Tx-100 buffer, and the newly synthesized proteins were Neutravidin (NA)-purified. […]

[4] = system: dissociated hippocampal neurons; assay: Fluorescent tagging (TRA/FLA tag) of AHA- or HPG-incorporated proteins in neurons; format: cell-based, rat; conditions: 1 hour; for incorporation into neurons (fluorescent tag detection): DIV 17, 4 mM, 1 μM TRA or FLA tag
Procedure: (§2) Dissociated hippocampal neuron cultures were prepared from newborn rat pups (PO) as outlined in (Banker and Goslin, 1990), Neurons were plated at a density of 15,000-45,000 cells/cm^2 onto poly-D-lysine coated cell culture dishes or onto poly-D-lysine and growth factor reduced matrigel (BD Biosciences) coated polycarbonate nets with a pore size of 3 μm (Transwell, Corning) for the preparation of isolated dendrites. The cultures were maintained and allowed to mature in growth medium (Neurobasal-A supplemented with B27 and GlutaMAX-1) for 14 to 21 days before use. The use of this growth medium suppressed glial proliferation, which was even more reduced by application of Ara-C (5 μM final concentration). To supplement glial neurotrophic factors, 25% conditioned growth media from glial and cortical cultures were added to the growth media. Isolated dendrites were obtained from Transwell cultures by removing the cell body layer with a sterile cell lifter after change to HBS. For immunolabeling after AHA-incorporation and cycloaddition with BiotinCyclooctyne, neurons are fixed at room temperature with 4% paraformaldehyde for 20 minutes. Fixed cultures are then treated sequentially with PBS, blocking solution (0.2% Triton X-100, 2 mg/ml BSA, 5% Sucrose, 10% normal horse serum in PBS), primary Ab in blocking solution at 4° C. overnight, PBS-Tx (0.2% Triton X-100 in PBS), Alexa488- or Alexa568-conjugated secondary Ab in blocking solution, PBS-Tx and PBS. Immunostained specimens are imaged in PBS with an Olympus confocal microscope or two-photon microscope through either a 10× or a 63× oil-immersion lens. Alexa568 is excited at 543 nm and Alexa488 at 488 nm. Images are recorded through standard emission filters at contrast settings for which the crossover between the two channels is negligible.
In certain embodiments of the invention, two or more pairs of different non-natural amino acid/labeling reagents may be used to simultaneously or sequentially label the newly synthesized proteins. […]

[5] = system: dendrites of hippocampal neurons; assay: Time-course of detection of newly synthesized proteins in dendrites; format: cell-based, rat
Procedure: as §2
Representative straightened dendrites of neurons (DIV 16) incubated with 4 mM AHA, 4 mM Methionine (Met) or AHA plus 40 μM anisomycin (Aniso) for time points indicated. The lookup table indicates fluorescence intensity. The left end is the proximal end, the right end is the distal end. […]

[6] = system: mammalian cells, primary neuronal cell cultures; assay: General properties of AHA in cell cultures (previous experiments and literature); format: cell-based
[7] = system: mammalian cells, primary neuronal cell cultures; conditions: Dieterich et al. 2006, cited from earlier work
HEK293 cells [8] = assay: Specificity of AHA labelling of newly synthesized proteins, anti-biotin Western blot after [3+2] cycloaddition; format: cell-based; conditions: 2 hrs with AHA plus inhibitor
Procedure: In embodiments using [3+2] Cycloaddition, the following exemplary protocol may be used. Briefly, AHA, Biotin-PEO-Propargylamide and the triazole ligand were prepared as described previously. The tandem featured alkyne tag was synthesized by GenScript Corporation. Biotin-Cyclooctyne is a generous gift from Carolyn Bertozzi. D10-L-leucine was purchased from Sigma. In all culture experiments, growth medium was removed from HEK293 cells, whole neuronal cultures or isolated dendrites were replaced with HEPES-buffered solution (HBS) with 2.86 mM AHA, and 2.86 mM methionine for control experiments. After incubation at 37° C., 5% CO2, cells were washed with PBS-MC (1 mM MgCl2, 0.1 mM CaCl2 in PBS) to remove excess amounts of AHA and methionine. SNS and other biochemical fractions are incubated with 2.86 mM AHA or 2.86 mM methionine under agitation at 37° C. and washed in StimBuffer after incubation. […]
as §1, with “Cycloheximide).” for “Cycloheximide). After incubation, cells were lysed and subjected to [3+2]cycloaddition with the biotin-bearing alkyne-linker Biotin-PEO-Propargylamide, followed by Western blot analysis with an anti-Biotin-antibody.”

[N-]=[N+]=NCC[C@H](N)C(=O)O [AHA, azidohomoalanine]
toxicity to neurons (gross morphology, GFP expression in the dendritic arbor) [1]: not toxic to neurons | ubiquitination of total protein (HEK293 cells [2]): No increased ubiquitination | incorporation into newly synthesized proteins (biotinylated proteins after Neutravidin) (acute hippocampal slices): vast enrichment of biotinylated proteins | level of protein synthesis by AHA labelling, tumor versus non-diseased tissue [3]: substantially higher in cells from tumor tissue | incorporation into neurons (fluorescent tag detection) [4]: successfully incorporated | time at which AHA incorporation was visible ([5]; DIV 16, 4 mM AHA): 10 min | time by which whole neuron soma and dendrite was filled with AHA-labeled proteins ([5]; DIV 16, 4 mM AHA): ≤ 40 min | cell toxicity [6]: not toxic even in primary neuronal cell cultures; also recorded: undetected cell toxicity | membrane permeability [6]: excellent membrane permeability | protein degradation upon introduction of AHA ([6]; E. coli and mammalian cells): no evidence of increased protein degradation | global protein synthesis rates [7]: no evidence that AHA exposure alters global protein synthesis rates | ubiquitination of total protein ([7]; compared to buffer or methionine controls): no increase in the ubiquitination | cell toxicity ([7]; incl. primary cultured postnatal neurons): not toxic to cells

COc1ccc(C[C@H]2NC[C@H](O)[C@H]2OC(C)=O)cc1 [Anisomycin, reference compound]
anti-biotin signal of AHA-labelled proteins in the presence of the protein synthesis inhibitor (HEK293 cells [8]): No signal was detected | effect of the protein synthesis inhibitor on AHA incorporation ([4]; 40 μM with 4 mM AHA): completely abolished AHA incorporation | effect of the protein synthesis inhibitor on AHA labelling of dendrites ([5]; 40 μM with AHA): completely inhibited

C[C@@H]1C[C@@H]([C@H](O)CC2CC(=O)NC(=O)C2)C(=O)[C@@H](C)C1 [Cycloheximide]
anti-biotin signal of AHA-labelled proteins in the presence of the protein synthesis inhibitor (HEK293 cells [8]): No signal was detected

C#CCCC(N)C(=O)O (stereo not drawn) [HPG, Homopropargylglycine]
incorporation into neurons (fluorescent tag detection) [4]: successfully incorporated
